{"source": "patent US20140315956A1", "about": "“SMALL MOLECULE INHIBITORS OF IL-6 AND USES THEREOF” (NATIONWIDE CHILDREN'S HOSPITAL, priority 2011, published 2014)", "key": {"GP130 [1]": {"molecular_target": "T1, GP130 (Homo sapiens, UniProt P40189)", "T1 sequence (P40189 23-918)": "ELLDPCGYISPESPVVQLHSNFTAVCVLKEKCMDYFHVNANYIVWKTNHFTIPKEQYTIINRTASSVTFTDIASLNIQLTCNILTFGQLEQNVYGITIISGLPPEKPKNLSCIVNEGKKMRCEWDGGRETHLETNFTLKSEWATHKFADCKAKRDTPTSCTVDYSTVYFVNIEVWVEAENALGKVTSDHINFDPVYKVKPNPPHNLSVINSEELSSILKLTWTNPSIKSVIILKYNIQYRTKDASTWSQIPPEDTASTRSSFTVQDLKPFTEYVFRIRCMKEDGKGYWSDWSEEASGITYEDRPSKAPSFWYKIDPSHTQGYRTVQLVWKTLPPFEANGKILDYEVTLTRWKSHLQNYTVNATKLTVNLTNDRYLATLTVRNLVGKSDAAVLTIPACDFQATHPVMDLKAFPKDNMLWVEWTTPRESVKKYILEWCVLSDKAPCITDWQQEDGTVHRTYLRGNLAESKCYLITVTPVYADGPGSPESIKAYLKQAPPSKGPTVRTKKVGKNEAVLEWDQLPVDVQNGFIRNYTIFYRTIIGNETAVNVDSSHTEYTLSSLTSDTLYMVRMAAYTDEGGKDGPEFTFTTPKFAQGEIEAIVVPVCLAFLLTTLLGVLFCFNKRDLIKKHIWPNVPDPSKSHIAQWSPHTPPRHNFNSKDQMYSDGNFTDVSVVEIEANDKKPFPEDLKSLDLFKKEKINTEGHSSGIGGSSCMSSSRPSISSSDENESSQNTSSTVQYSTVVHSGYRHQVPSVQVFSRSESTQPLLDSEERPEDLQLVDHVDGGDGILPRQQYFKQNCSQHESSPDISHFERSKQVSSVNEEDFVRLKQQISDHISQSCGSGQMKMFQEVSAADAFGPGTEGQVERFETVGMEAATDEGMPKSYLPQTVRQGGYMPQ", "test": "Literature binding of madindoline A to GP130", "conditions": "compared with the docking free energy", "description": "Several synthetic approaches to the preparation of the natural product have been reported (ref. 22 and references therein), but due to the length and complexity of the syntheses cannot be applied economically in a pharmaceutical process. A structure-based approach to the synthesis of madindoline A analogues has not yet been reported."}, "GP130 [2]": {"molecular_target": "T1, GP130", "conditions": "reported by Saleh et al.; read-out: GP130 binding affinity KD; cited from earlier work"}, "[3]": {"test_system": "IL-6-dependent STAT3 tyrosine phosphorylation in HepG2 cells", "conditions": "Saleh and coworkers; cited from earlier work"}}, "data": [{"compound": "CCCCC1=C(C)C(=O)[C@@](C)(CN2c3ccccc3[C@]3(O)CCO[C@H]23)C1=O", "note": "[MDL-A, (+)-Madindoline A, reference compound]", "values": [{"measurement": "experimental binding free energy", "setting": "GP130 [1]", "value": -5.0, "unit": "kcal/mol"}, {"measurement": "Kd", "setting": "GP130 [2]", "value": 288, "unit": "µM"}, {"measurement": "IL-6-dependent STAT3 tyrosine phosphorylation", "setting": "[3]", "value": "inhibits IL-6-dependent STAT3 tyrosine phosphorylation"}]}]}
